6 molecules from PubChem BioAssay (NCI) can be followed below.

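Protocol summary: plate cells (96-well), add compound at 5 concentrations, incubate 48 h, interpolate endpoints linearly. At the GI50, growth is halved. TGI: total growth inhibition.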 Where only a bound is given, the exact number is not on record here.

Test systems include CCRF-CEM leukemia; HCC-2998 colon; LOX IMVI melanoma; MCF7 breast; MDA-MB-435; OVCAR-3 ovarian; SF-295 CNS; SK-MEL-28 melanoma; SNB-75 CNS; T-47D breast.
Holding throughout (experiment): NCI anticancer screen, dose series, 48 h

For `O=C(Nc1cc(Oc2cc(F)c(NC(=O)C3(C(=O)Nc4ccc(F)cc4)CC3)cc2F)ccn1)C1CC1`, the GI50 is 2.39 µM with CCRF-CEM leukemia; 3.5 µM in the test on HCC-2998 colon; 2.2 µM in the test on LOX IMVI melanoma; 0.936 µM in the test on MCF7 breast; 1.53 µM in the test on MDA-MB-435; 3.69 µM with OVCAR-3 ovarian. Also, the GI50 in the test on SF-295 CNS was 2.21 µM; in the test with SK-MEL-28 melanoma, 1.64 µM; with SNB-75 CNS, 1.49 µM; in the test with T-47D breast, 2.33 µM. For the same molecule, the TGI was 7.59 µM in the test with CCRF-CEM leukemia; more than 29.4 µM in the test with HCC-2998 colon; 6.25 µM with LOX IMVI melanoma; 9.55 µM with MCF7 breast; 4.26 µM in the test with MDA-MB-435; 13.1 µM with OVCAR-3 ovarian. The TGI with SF-295 CNS came out at 9.91 µM; with SK-MEL-28 melanoma, 6.33 µM; in the test on SNB-75 CNS, 3.16 µM; in the test on T-47D breast, 6.61 µM.

For the molecule `CC1=C[C@H]2C[C@H](C)[C@H]3CC[C@H](C)[C@]4(C1)C(=O)C(O)=C(C)C(=O)[C@@]324`, the GI50 was 11.7 µM in the test on CCRF-CEM leukemia; 19.6 µM with HCC-2998 colon; 22.1 µM in the test on LOX IMVI melanoma; more than 100 µM in the test on MCF7 breast; 41.1 µM with MDA-MB-435; 20 µM in the test on OVCAR-3 ovarian. For the same molecule, the GI50 in the test with SF-295 CNS was more than 100 µM; in the test with SK-MEL-28 melanoma it was 26 µM; in the test with SNB-75 CNS, 46.7 µM; with T-47D breast, 19.1 µM. Further, the TGI is 31.5 µM in the test with CCRF-CEM leukemia; 47.2 µM in the test on HCC-2998 colon; 51.1 µM in the test with LOX IMVI melanoma; more than 100 µM in the test on MCF7 breast; more than 100 µM in the test with MDA-MB-435; 64.6 µM in the test with OVCAR-3 ovarian. The TGI in the test with SF-295 CNS, in the test on SK-MEL-28 melanoma, in the test with SNB-75 CNS and with T-47D breast was more than 100 µM each time.

In the case of `COc1cccc(C2C3=C(COC3=O)N(CCO)c3cc4c(cc32)OCO4)c1` (centres undefined), the GI50 in the test with CCRF-CEM leukemia was 0.274 µM; in the test on HCC-2998 colon, 0.211 µM; in the test with LOX IMVI melanoma, 0.451 µM; in the test on MCF7 breast, 0.185 µM; with MDA-MB-435, 0.101 µM; in the test with OVCAR-3 ovarian it was 0.121 µM. Besides, the GI50 with SF-295 CNS is 0.157 µM; in the test with SK-MEL-28 melanoma, more than 50 µM; in the test with SNB-75 CNS it was 0.151 µM; in the test with T-47D breast, 0.263 µM. In addition, the TGI is more than 50 µM in the test with CCRF-CEM leukemia; 1.2 µM with HCC-2998 colon; more than 50 µM with LOX IMVI melanoma; more than 50 µM in the test with MCF7 breast; 0.356 µM in the test with MDA-MB-435; 0.286 µM in the test with OVCAR-3 ovarian. Further, the TGI was more than 50 µM with SK-MEL-28 melanoma, 1.07 µM in the test with SNB-75 CNS and more than 50 µM in the test with T-47D breast.

Take `O=S(=O)(Nc1ccc(F)c(Cl)c1)c1ccc(-c2cnc(C3CC3)o2)cc1`: the GI50 is 0.318 µM with CCRF-CEM leukemia; 1.13 µM in the test with HCC-2998 colon; 0.401 µM with LOX IMVI melanoma; 0.126 µM in the test on MCF7 breast; 0.0313 µM with MDA-MB-435; 0.154 µM in the test with OVCAR-3 ovarian. Also, the GI50 with SF-295 CNS is 0.199 µM; in the test with SK-MEL-28 melanoma, 1.73 µM; in the test with SNB-75 CNS, 0.137 µM; in the test on T-47D breast, 0.361 µM. In addition, the TGI with CCRF-CEM leukemia stood at 28.9 µM; with HCC-2998 colon, 7.9 µM; in the test on LOX IMVI melanoma it was 13.5 µM; in the test with MCF7 breast, 9.83 µM; with MDA-MB-435, 0.187 µM; in the test with OVCAR-3 ovarian, 4.01 µM. Also, the TGI in the test with SF-295 CNS is 1.49 µM; in the test with SK-MEL-28 melanoma, 14.5 µM; in the test on SNB-75 CNS, 0.547 µM; in the test on T-47D breast, 13.1 µM.

With `Cc1c(C(N)=O)sc2c1c(=O)n(Cc1ccccc1)c1nnc(-c3ccc(Br)cc3)n21`, the GI50 in the test on CCRF-CEM leukemia was 0.805 µM; in the test with HCC-2998 colon, 1.91 µM; in the test on LOX IMVI melanoma, 1.27 µM; in the test with MCF7 breast, 3.4 µM; with MDA-MB-435, 3.49 µM; in the test on OVCAR-3 ovarian it was 2.48 µM. Further, the GI50 in the test on SF-295 CNS was 1.01 µM; in the test with SK-MEL-28 melanoma, 4.09 µM; in the test on SNB-75 CNS, 4.44 µM; in the test with T-47D breast it was 3.38 µM. The TGI was 22.8 µM with CCRF-CEM leukemia; 14.6 µM in the test on HCC-2998 colon; 10.2 µM in the test on LOX IMVI melanoma; 14.6 µM with MCF7 breast; 20.7 µM in the test with MDA-MB-435; 16.9 µM in the test with OVCAR-3 ovarian. For the same molecule, the TGI in the test on SF-295 CNS amounted to 11.8 µM; in the test with SK-MEL-28 melanoma, 17.1 µM; in the test on SNB-75 CNS, 20.9 µM; in the test with T-47D breast it was 18.9 µM.

Turning to `CC12CCC3c4cc(Br)c(O)c(Br)c4CCC3C1CCC2O` (centres undefined), the TGI with CCRF-CEM leukemia worked out at 75.8 µM; in the test with HCC-2998 colon it was 25.3 µM; in the test with LOX IMVI melanoma, 63.6 µM; with MCF7 breast it was 74.6 µM; in the test on MDA-MB-435 it was 18.7 µM; in the test on OVCAR-3 ovarian it was 56.4 µM. Also, the TGI with SF-295 CNS is 33.4 µM; with SK-MEL-28 melanoma, 34.9 µM; in the test with SNB-75 CNS it was 37.5 µM; with T-47D breast it was 83.8 µM.
